One series has as its system Aβ1-40. The experiment in a line: Brain slice assay, soluble Aβ1-40 in medium by ELISA. The following applies: TG2576 mouse brain slices; 1, 10 and 100 μg/ml; 96 hours vs. 48 hours. The format is cell-based, Transgenic TG2576 mice. The procedure:
Transgenic TG2576 mice expressing the human SWE-mutated amyloid precursor protein are sacrificed by cervical dislocation at 8-10 months of age. The brain is removed and 400 μm coronal sections are obtained using a manual tissue chopper (Leica Microsystems). Slices are washed briefly in HBSS (Hank balanced salt solution, Life Technologies) supplemented with 4.5 mg/ml glucose (Sigma-Aldrich) and 3.75 μg/ml amphotericin B (Sigma-Aldrich) and transferred to a transwell plate (Costar 3396 HTS 24 well transwell plate with 0.4 μm polycarbonate membrane) in 1 ml of 50% MEM (minimal essential medium, Life Technologies) supplemented with 25% heat-inactivated horse serum (Life Technologies), 25% HBSS, 0.5 mM glutamine (Life Technologies), 4.5 mg/ml glucose and 3.75 μg/ml amphotericin B. Slices are incubated 48 hours at 37 C, 5% CO2. […] Soluble Aμ1-40 in the medium is quantified using a SensoLyte™ Anti-Human βeta-Amyloid (1-40) ELISA kit (Anaspec) in accordance with the manufacturer's instructions. […] The color reaction is stopped with 50 μl of Stop Solution and the plate is read at 450 nm using an absorbance plate reader (Thermo Multiskan EX). The amount of Aβ-40 is quantified by reference to a standard curve of Aβ1-40 (supplied in the SensoLyte™ kit). Data are expressed as a percentage of the Aβ1-40 present at 96 hours vs. 48 hours for each condition.
(In general: ELISA stands for enzyme-linked immunosorbent assay.)

For another series, the target named is T1, recombinant human BACE-1 (Homo sapiens, UniProt P56817).
T1 construct: purchased R & D Systems 931-AS
The experiment in a line: BACE-1 inhibition by in vitro FRET peptide cleavage assay. The format is biochemical. The following applies: pH 4.5, 1 h, 25° C. The procedure:
The ability of compounds of the invention to inhibit BACE-1 cleavage of APP is assessed using a fluorescent resonance energy transfer (FRET) peptide cleavage assay employing the FRET peptide HiLyte 488-Glu-Val-Asn-Leu-Asp-Ala-Glu-Phe-Lys(QXL520)-OH (Anaspec, Inc., CA, USA; Cat no. 60604-01). When intact, the amino terminal fluorophore is quenched, but upon enzymatic cleavage the fluorophore is released from quencher and fluoresces (520 nm). Assays are performed in triplicate in 96 well black plates (20 mM sodium acetate, 0.1% Triton-X-100, pH 4.5; 2.2 ng peptide per well and 25 ng/well of recombinant human BACE-1 (R & D Systems Cat no. 931-AS). The appropriate controls for enzyme activity (substrate plus enzyme, and substrate only) are employed and plates are incubated (1 h, 25° C., with activity stopped with 2.5 M sodium acetate). Compounds of the invention are added in the concentration range from 100-0.0001 μg/mL. Fluorescence 480ex/520em is measured on a Polarstar plate reader (BMG LabTechnologies, UK) and data are analysed by plotting log10 concentration of compound against percent inhibition and fitting a logistic dose response sigmoidal curve using OriginPro 8 (OriginLabs, Mass, USA).

The target in a further series is T2, bovine Factor Xa (Bos taurus, UniProt P00743).
T2 construct: purchased Thermo Scientific 32521
The experiment in a line: Factor Xa anticoagulant assay (antithrombin-III mediated inactivation of Factor Xa). The format is biochemical. Particulars: dose range 0.004 to 50 μg/ml. The procedure:
The plate is incubated for two minutes at 37° C. […] 19 μl of 2.5 mM chromogenic substrate (American Diagnostica Inc. Spectrozyme FXa Product No 222L) in assay buffer is added to each well and incubated for 2 hours at 37° C., followed by addition of 5 μl of 30% acetic acid to each well. Absorbance at 405 nm is read on a multiplate reader.

Here are results for 9 compounds from patent US9879041B2, “Saccharide dendritic cluster compounds as inhibitors of BACE-1” (Victoria Link Limited, priority 2012, dated 2018).

T2 sequence (P01008 33-464 partner): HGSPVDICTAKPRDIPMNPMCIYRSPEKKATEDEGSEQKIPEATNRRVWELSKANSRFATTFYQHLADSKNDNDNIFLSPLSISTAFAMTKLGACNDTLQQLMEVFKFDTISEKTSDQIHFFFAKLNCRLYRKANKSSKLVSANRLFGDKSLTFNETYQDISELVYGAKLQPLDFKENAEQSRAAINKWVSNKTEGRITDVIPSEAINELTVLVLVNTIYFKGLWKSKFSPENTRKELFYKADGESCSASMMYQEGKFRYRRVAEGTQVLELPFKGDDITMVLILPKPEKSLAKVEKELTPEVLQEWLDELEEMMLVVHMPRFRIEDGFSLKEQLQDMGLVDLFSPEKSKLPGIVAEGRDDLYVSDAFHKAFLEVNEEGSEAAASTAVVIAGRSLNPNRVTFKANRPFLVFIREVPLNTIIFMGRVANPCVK
T2 sequence (P00743 234-492 limits assumed): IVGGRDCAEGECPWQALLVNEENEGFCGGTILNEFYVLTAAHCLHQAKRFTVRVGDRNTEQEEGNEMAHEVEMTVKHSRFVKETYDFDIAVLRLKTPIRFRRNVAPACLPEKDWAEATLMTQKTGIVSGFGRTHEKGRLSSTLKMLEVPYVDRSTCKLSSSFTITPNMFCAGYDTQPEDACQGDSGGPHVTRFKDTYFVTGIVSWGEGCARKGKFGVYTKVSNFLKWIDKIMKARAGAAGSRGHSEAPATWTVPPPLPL
T1 sequence (P56817 46-501): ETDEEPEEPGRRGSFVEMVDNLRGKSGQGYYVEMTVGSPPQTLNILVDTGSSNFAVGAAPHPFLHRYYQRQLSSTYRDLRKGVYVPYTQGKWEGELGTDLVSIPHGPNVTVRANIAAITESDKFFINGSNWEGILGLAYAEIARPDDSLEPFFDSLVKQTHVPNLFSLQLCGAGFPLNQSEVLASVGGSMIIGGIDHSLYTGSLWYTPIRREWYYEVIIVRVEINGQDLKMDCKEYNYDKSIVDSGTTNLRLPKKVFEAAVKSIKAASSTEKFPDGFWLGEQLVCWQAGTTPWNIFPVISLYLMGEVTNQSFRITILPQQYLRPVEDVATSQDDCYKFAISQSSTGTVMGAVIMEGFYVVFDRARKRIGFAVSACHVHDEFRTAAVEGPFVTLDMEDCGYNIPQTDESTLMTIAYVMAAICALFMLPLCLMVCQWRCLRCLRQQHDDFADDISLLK

Regarding `CC(=O)NC1C(OC2C(C(=O)O)OC(OCCCCCCNC(=O)CCCCCCCNC(=O)CCOCC(COCCC(=O)NCCCCCCCC(=O)NCCCCCCOC3OC(C(=O)O)C(OC4OC(COS(=O)(=O)O)C(O)C(O)C4NC(C)=O)C(O)C3O)(COCCC(=O)NCCCCCCCC(=O)NCCCCCCOC3OC(C(=O)O)C(OC4OC(COS(=O)(=O)O)C(O)C(O)C4NC(C)=O)C(O)C3O)COCCC(=O)NCCCCCCCC(=O)NCCCCCCOC3OC(C(=O)O)C(OC4OC(COS(=O)(=O)O)C(O)C(O)C4NC(C)=O)C(O)C3O)C(O)C2O)OC(COS(=O)(=O)O)C(O)C1O` (stereo not shown) [Compound 18a], the “ability to lower amounts of Aβ1-40 in brain slices” value with Aβ1-40 is given as “demonstrate the ability to lower amounts of Aβ1-40”.

Take `CC(=O)NC1C(OC2C(C(=O)O)OC(OCCCCCCNC(=O)CCCCCCCNC(=O)CCOCC(COCCC(=O)NCCCCCCCC(=O)NCCCCCCOC3OC(C(=O)O)C(OC4OC(COS(=O)(=O)O)C(O)C(O)C4NC(C)=O)C(O)C3O)(COCCC(=O)NCCCCCCCC(=O)NCCCCCCOC3OC(C(=O)O)C(OC4OC(COS(=O)(=O)O)C(O)C(O)C4NC(C)=O)C(O)C3O)COCCC(=O)NCCCCCCCC(=O)NCCCCCCOC3OC(C(=O)O)C(OC4OC(COS(=O)(=O)O)C(O)C(O)C4NC(C)=O)C(O)C3O)C(O)C2O)OC(COS(=O)(=O)O)C(O)C1O` (stereo not shown) [Compound 18b]: the IC50 (commonly the concentration needed to halve the response being measured) on recombinant human BACE-1 was approximately 3100 nM. Also, at bovine Factor Xa, the “ability to accelerate antithrombin-III mediated inactivation of Factor Xa, as measured by cleavage of a peptide substrate” value (“ability … of a peptide substrate” for short) is “do not display any measurable ability”.

With `CC(=O)NC1C(OC2C(C(=O)O)OC(OC3C(COS(=O)(=O)O)OC(OC4C(C(=O)O)OC(OCCCCCCNC(=O)CCCCCCCNC(=O)CCOCC(COCCC(=O)NCCCCCCCC(=O)NCCCCCCOC5OC(C(=O)O)C(OC6OC(COS(=O)(=O)O)C(OC7OC(C(=O)O)C(OC8OC(COS(=O)(=O)O)C(O)C(O)C8NC(C)=O)C(O)C7O)C(O)C6NC(C)=O)C(O)C5O)(COCCC(=O)NCCCCCCCC(=O)NCCCCCCOC5OC(C(=O)O)C(OC6OC(COS(=O)(=O)O)C(OC7OC(C(=O)O)C(OC8OC(COS(=O)(=O)O)C(O)C(O)C8NC(C)=O)C(O)C7O)C(O)C6NC(C)=O)C(O)C5O)COCCC(=O)NCCCCCCCC(=O)NCCCCCCOC5OC(C(=O)O)C(OC6OC(COS(=O)(=O)O)C(OC7OC(C(=O)O)C(OC8OC(COS(=O)(=O)O)C(O)C(O)C8NC(C)=O)C(O)C7O)C(O)C6NC(C)=O)C(O)C5O)C(O)C4O)C(NC(C)=O)C3O)C(O)C2O)OC(COS(=O)(=O)O)C(O)C1O` (stereo not shown) [Compound 18c], on recombinant human BACE-1, the 50% inhibitory concentration (IC50) is approximately 39.5 nM. Besides, the “ability … of a peptide substrate” value at bovine Factor Xa is “do not display any measurable ability”.

Regarding `CC(=O)NC1C(OCCCCCCNC(=O)CCOCC(COCCC(=O)NCCCCCCOC2OC(COS(=O)(=O)O)C(O)C(O)C2NC(C)=O)(COCCC(=O)NCCCCCCOC2OC(COS(=O)(=O)O)C(O)C(O)C2NC(C)=O)COCCC(=O)NCCCCCCOC2OC(COS(=O)(=O)O)C(O)C(O)C2NC(C)=O)OC(COS(=O)(=O)O)C(O)C1O` (stereo not shown) [Compound 18e], on recombinant human BACE-1, the IC50 is approximately 25600 nM. For the same compound, on bovine Factor Xa, the “ability … of a peptide substrate” value is “do not display any measurable ability”.

On to `CC(=O)NC1C(OCCCCCCNC(=O)CCCCCCCNC(=O)CCOCC(COCCC(=O)NCCCCCCCC(=O)NCCCCCCOC2OC(COS(=O)(=O)O)C(O)C(O)C2NC(C)=O)(COCCC(=O)NCCCCCCCC(=O)NCCCCCCOC2OC(COS(=O)(=O)O)C(O)C(O)C2NC(C)=O)COCCC(=O)NCCCCCCCC(=O)NCCCCCCOC2OC(COS(=O)(=O)O)C(O)C(O)C2NC(C)=O)OC(COS(=O)(=O)O)C(O)C1O` (stereo not shown) [Compound 18h], for which, on recombinant human BACE-1, the IC50 was in the range of 794 to 1980 nM. Besides, at bovine Factor Xa, the “ability … of a peptide substrate” value is on record as “do not display any measurable ability”.

As to `CC(=O)NC1C(OC2C(C(=O)O)OC(OCCCCCCNC(=O)CCCCCCCNC(=O)CCOCC(COCCC(=O)NCCCCCCCC(=O)NCCCCCCOC3OC(C(=O)O)C(OC4OC(COS(=O)(=O)O)C(O)C(O)C4NC(C)=O)C(O)C3OS(=O)(=O)O)(COCCC(=O)NCCCCCCCC(=O)NCCCCCCOC3OC(C(=O)O)C(OC4OC(COS(=O)(=O)O)C(O)C(O)C4NC(C)=O)C(O)C3OS(=O)(=O)O)COCCC(=O)NCCCCCCCC(=O)NCCCCCCOC3OC(C(=O)O)C(OC4OC(COS(=O)(=O)O)C(O)C(O)C4NC(C)=O)C(O)C3OS(=O)(=O)O)C(OS(=O)(=O)O)C2O)OC(COS(=O)(=O)O)C(O)C1O` (stereo not shown) [Compound 20a], the 50% inhibitory concentration (IC50) on recombinant human BACE-1 is approximately 14.1 nM.

For the compound `CC(=O)NC1C(OC2C(C(=O)O)OC(OCCCCCCNC(=O)CCCCCCCNC(=O)CCOCC(COCCC(=O)NCCCCCCCC(=O)NCCCCCCOC3OC(C(=O)O)C(OC4OC(COS(=O)(=O)O)C(O)C(O)C4NC(C)=O)C(O)C3OS(=O)(=O)O)(COCCC(=O)NCCCCCCCC(=O)NCCCCCCOC3OC(C(=O)O)C(OC4OC(COS(=O)(=O)O)C(O)C(O)C4NC(C)=O)C(O)C3OS(=O)(=O)O)COCCC(=O)NCCCCCCCC(=O)NCCCCCCOC3OC(C(=O)O)C(OC4OC(COS(=O)(=O)O)C(O)C(O)C4NC(C)=O)C(O)C3OS(=O)(=O)O)C(OS(=O)(=O)O)C2O)OC(COS(=O)(=O)O)C(O)C1O` (stereo not shown) [Compound 20b], on recombinant human BACE-1, the IC50 is approximately 56.4 nM. Moreover, on bovine Factor Xa, the “ability … of a peptide substrate” value was “do not display any measurable ability”.

Consider `CC(=O)NC1C(OC2C(C(=O)O)OC(OC3C(COS(=O)(=O)O)OC(OC4C(C(=O)O)OC(OCCCCCCNC(=O)CCCCCCCNC(=O)CCOCC(COCCC(=O)NCCCCCCCC(=O)NCCCCCCOC5OC(C(=O)O)C(OC6OC(COS(=O)(=O)O)C(OC7OC(C(=O)O)C(OC8OC(COS(=O)(=O)O)C(O)C(O)C8NC(C)=O)C(O)C7OS(=O)(=O)O)C(O)C6NC(C)=O)C(O)C5OS(=O)(=O)O)(COCCC(=O)NCCCCCCCC(=O)NCCCCCCOC5OC(C(=O)O)C(OC6OC(COS(=O)(=O)O)C(OC7OC(C(=O)O)C(OC8OC(COS(=O)(=O)O)C(O)C(O)C8NC(C)=O)C(O)C7OS(=O)(=O)O)C(O)C6NC(C)=O)C(O)C5OS(=O)(=O)O)COCCC(=O)NCCCCCCCC(=O)NCCCCCCOC5OC(C(=O)O)C(OC6OC(COS(=O)(=O)O)C(OC7OC(C(=O)O)C(OC8OC(COS(=O)(=O)O)C(O)C(O)C8NC(C)=O)C(O)C7OS(=O)(=O)O)C(O)C6NC(C)=O)C(O)C5OS(=O)(=O)O)C(OS(=O)(=O)O)C4O)C(NC(C)=O)C3O)C(OS(=O)(=O)O)C2O)OC(COS(=O)(=O)O)C(O)C1O` (stereo not shown) [Compound 20c], for which the IC50 at recombinant human BACE-1 was approximately 1.75 nM. The “ability … of a peptide substrate” value at bovine Factor Xa is “do not display any measurable ability”.

On to `O=C(CCCCCCCNC(=O)CCOCC(COCCC(=O)NCCCCCCCC(=O)NCCCCCCOC1OC(C(=O)O)C(OC2OC(COS(=O)(=O)O)C(OC3OC(C(=O)O)C(OC4OC(COS(=O)(=O)O)C(O)C(O)C4NS(=O)(=O)O)C(O)C3OS(=O)(=O)O)C(O)C2NS(=O)(=O)O)C(O)C1OS(=O)(=O)O)(COCCC(=O)NCCCCCCCC(=O)NCCCCCCOC1OC(C(=O)O)C(OC2OC(COS(=O)(=O)O)C(OC3OC(C(=O)O)C(OC4OC(COS(=O)(=O)O)C(O)C(O)C4NS(=O)(=O)O)C(O)C3OS(=O)(=O)O)C(O)C2NS(=O)(=O)O)C(O)C1OS(=O)(=O)O)COCCC(=O)NCCCCCCCC(=O)NCCCCCCOC1OC(C(=O)O)C(OC2OC(COS(=O)(=O)O)C(OC3OC(C(=O)O)C(OC4OC(COS(=O)(=O)O)C(O)C(O)C4NS(=O)(=O)O)C(O)C3OS(=O)(=O)O)C(O)C2NS(=O)(=O)O)C(O)C1OS(=O)(=O)O)NCCCCCCOC1OC(C(=O)O)C(OC2OC(COS(=O)(=O)O)C(OC3OC(C(=O)O)C(OC4OC(COS(=O)(=O)O)C(O)C(O)C4NS(=O)(=O)O)C(O)C3OS(=O)(=O)O)C(O)C2NS(=O)(=O)O)C(O)C1OS(=O)(=O)O` (stereo not shown) [Compound 22a], for which, on recombinant human BACE-1, the half-maximal inhibitory concentration (IC50) is approximately 1.67 nM. Besides, the “ability … of a peptide substrate” value at bovine Factor Xa was “do not display any measurable ability”.
